Experiment [1] deals with beta-endorphins. The conditions noted are these: normal volunteers, LDN at bedtime, in the following days; cited from earlier work.
Experiment [2] has as its system age related macular degeneration. Description: Case reports: low dose naltrexone regimen in patients with age related macular degeneration. Type of experiment: in vivo, human. The conditions noted are these: elderly person with age related macular degeneration, 4.5 mg per day at bedtime. The source says:
An […] has had age related macular degeneration for the last 11 years of […] life, experiencing progressive blurring in the center of […] vision. The degeneration led to loss of central vision […] from many daily activities. It […] very difficult to lead an independent life.
An […] has had age related macular degeneration for the last 10 years […]. […] experienced a loss of central vision […] to differentiate the colors of the surrounding objects and letters in the newspapers. […] […] began to differentiate the colors of the objects shown to […]; […] started to differentiate the big printed letters in the newspapers.

Experiment [3] relates to human tumors. To be noted: laboratory studies, low dose naltrexone methodology; cited from earlier work.
Experiment [4] concerns Met-enkephalin. The conditions noted are these: animal research, Ref 7; cited from earlier work.

On to `O=C1CC[C@@]2(O)[C@H]3Cc4ccc(O)c5c4[C@@]2(CCN3CC2CC2)[C@H]1O5` [naltrexone], for which the “levels of beta-endorphins in blood” value in experiment [1] is on record as “higher levels of beta-endorphins in their blood”. Further, the results for the quality of vision result in experiment [2] and in experiment [2] (listed as low dose naltrexone) were “the quality of their vision started to improve” and “improvement in the quality of their vision”, respectively. For the same molecule, the “time after initiation of therapy until vision began to improve” value was “Approximately 50 days” in experiment [2] and 50 to 60 days in experiment [2] (listed as low dose naltrexone). For the same molecule, the “inhibition of human tumors” value in experiment [3] is listed as “inhibition of different human tumors”. Further, the Met-enkephalin levels result in experiment [4] is “marked increase in Met-enkephalin levels”.

The values are drawn from patent publication US20110165232A1, “Use of Opioid Antagonists for the Preparation of a Medicament in the Treatment of Retinal Degenerative Diseases” (AK KIMYA ITHALAT-IHRACAT VE SANAYII ANONIM SIRKETI, priority 2008, published 2011).
